Test system: E. coli
Test: Bacterial resistance test: solid 1 mm cube placed in E. coli solution, growth followed by OD600
Conditions: E. coli solution with starting OD600 0.45

Measured: OD600 value

Description: B) The block was putted into an E. coli solution with an OD600 value of 0.45, and the growth of the bacteria was observed.
The antibacterial properties of bacterial in the experimental groups 1 to 5 and the control group were tested, and the OD600 values represent the growth of bacterial cells.

CCc1occc(=O)c1O [experimental group 3, ethyl maltol]
lowest: at 12 hours, control group 0.55 | at 24 hours, control group 0.48 | at 2 days, control group 0.61 | at 3 days, control group 0.47

From patent US20220315771A1, “REVERSIBLE CULTURAL RELIC PROTECTION MATERIAL WITH FUNCTION OF INHIBITING GROWTH OF BACTERIA AND MOLD” (SHANGHAI UNIVERSITY, priority 2019, published 2022)
